{
  "source": "patent US6593306B1",
  "about": "“Methods for modulation and inhibition of telomerase” (Board of Regents, The University of Texas Systems, priority 1995, dated 2003)",
  "key": {"[1]": {"molecular_target": "T1, UA-21 telomerase (Cricetulus griseus, UniProt A0A9J7FFE8)", "T1 construct": "non-processive telomerase activity in the S100 extracts of HeLa-S3, UA-21 and WI38 cell lines; endogenous in cells; host or cells: UA-21 cells (CHO subline), S100 extract", "T1 sequence (A0A9J7FFE8 1-1129)": "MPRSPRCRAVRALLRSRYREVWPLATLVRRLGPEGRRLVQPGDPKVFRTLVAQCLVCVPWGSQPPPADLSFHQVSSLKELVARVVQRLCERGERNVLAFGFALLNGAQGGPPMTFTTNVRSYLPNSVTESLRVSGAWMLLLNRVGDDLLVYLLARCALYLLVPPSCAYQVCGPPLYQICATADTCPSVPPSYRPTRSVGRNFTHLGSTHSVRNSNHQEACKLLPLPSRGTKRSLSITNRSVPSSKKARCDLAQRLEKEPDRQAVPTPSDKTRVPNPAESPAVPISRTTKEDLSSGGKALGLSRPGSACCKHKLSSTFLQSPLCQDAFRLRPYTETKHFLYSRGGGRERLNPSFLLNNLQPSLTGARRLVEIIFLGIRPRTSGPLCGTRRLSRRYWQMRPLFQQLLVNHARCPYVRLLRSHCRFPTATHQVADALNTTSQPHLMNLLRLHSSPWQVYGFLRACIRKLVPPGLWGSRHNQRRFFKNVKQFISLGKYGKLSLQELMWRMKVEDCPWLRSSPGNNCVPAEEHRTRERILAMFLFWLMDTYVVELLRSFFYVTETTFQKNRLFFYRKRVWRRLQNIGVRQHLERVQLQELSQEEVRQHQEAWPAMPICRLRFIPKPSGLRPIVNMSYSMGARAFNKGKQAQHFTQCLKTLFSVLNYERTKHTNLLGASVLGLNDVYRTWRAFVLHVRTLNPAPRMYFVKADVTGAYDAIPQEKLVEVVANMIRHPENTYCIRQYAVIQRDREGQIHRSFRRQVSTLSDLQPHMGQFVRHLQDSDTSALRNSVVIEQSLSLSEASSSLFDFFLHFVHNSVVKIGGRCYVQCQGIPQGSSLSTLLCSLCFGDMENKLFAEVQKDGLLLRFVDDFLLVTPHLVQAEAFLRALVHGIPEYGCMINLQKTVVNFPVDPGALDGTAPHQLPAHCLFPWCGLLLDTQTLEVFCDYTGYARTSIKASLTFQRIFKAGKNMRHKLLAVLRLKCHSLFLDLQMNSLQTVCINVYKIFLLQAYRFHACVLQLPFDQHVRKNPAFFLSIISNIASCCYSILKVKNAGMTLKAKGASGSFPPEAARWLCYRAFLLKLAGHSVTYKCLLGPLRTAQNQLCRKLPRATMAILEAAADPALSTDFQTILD", "assay": "Telomerase assay with CHO non-processive telomerase", "format": "biochemical, Chinese hamster", "experimental": "Selected nucleoside triphosphates were tested in one or both of the “conventional” or “modified” telomerase assays described in Methods using the human processive and the CHO non-processive telomerases. Initially, three chain-terminators were selected: 2′,3′-dideoxythymidine triphosphate (ddTTP), 3′-fluoro-2′,3′-dideoxythymidine triphosphate (F-ddTTP), and 3′-azido-2′-, 3′-dideoxythymidine triphosphate (AZ-ddTTP) as prototype agents to investigate whether they could inhibit telomerase activity. The three compounds are dTTP analogs without a 3′-OH group for subsequent chain elongation. They may either incorporate into the telomere sequence and terminate further chain elongation or compete directly with dTTP for the substrate binding site in the telomerase reaction. In either case, telomerase activity is inhibited.\nThe DNA ladder bands were quantitated using a Molecular Dynamic Personal Densitometer. The concentration of AZ-ddTTP required to inhibit the telomerase activity by 50% of the control is estimated to be 500 and 750 μM against the 293 and UA-21 telomerase, respectively. In contrast, the nucleoside AZT (3′-azidothymidine), at 2 mM, has a small effect on the telomerase activity."}, "[2]": {"molecular_target": "T2, human telomerase (Homo sapiens, UniProt O14746)", "T2 construct": "telomerase in S100 extracts of transformed human fetal kidney tumor 293 cells (a processive telomerase); endogenous in cells; host or cells: human cells, (S100 extract)", "T2 sequence (O14746 whole entry)": "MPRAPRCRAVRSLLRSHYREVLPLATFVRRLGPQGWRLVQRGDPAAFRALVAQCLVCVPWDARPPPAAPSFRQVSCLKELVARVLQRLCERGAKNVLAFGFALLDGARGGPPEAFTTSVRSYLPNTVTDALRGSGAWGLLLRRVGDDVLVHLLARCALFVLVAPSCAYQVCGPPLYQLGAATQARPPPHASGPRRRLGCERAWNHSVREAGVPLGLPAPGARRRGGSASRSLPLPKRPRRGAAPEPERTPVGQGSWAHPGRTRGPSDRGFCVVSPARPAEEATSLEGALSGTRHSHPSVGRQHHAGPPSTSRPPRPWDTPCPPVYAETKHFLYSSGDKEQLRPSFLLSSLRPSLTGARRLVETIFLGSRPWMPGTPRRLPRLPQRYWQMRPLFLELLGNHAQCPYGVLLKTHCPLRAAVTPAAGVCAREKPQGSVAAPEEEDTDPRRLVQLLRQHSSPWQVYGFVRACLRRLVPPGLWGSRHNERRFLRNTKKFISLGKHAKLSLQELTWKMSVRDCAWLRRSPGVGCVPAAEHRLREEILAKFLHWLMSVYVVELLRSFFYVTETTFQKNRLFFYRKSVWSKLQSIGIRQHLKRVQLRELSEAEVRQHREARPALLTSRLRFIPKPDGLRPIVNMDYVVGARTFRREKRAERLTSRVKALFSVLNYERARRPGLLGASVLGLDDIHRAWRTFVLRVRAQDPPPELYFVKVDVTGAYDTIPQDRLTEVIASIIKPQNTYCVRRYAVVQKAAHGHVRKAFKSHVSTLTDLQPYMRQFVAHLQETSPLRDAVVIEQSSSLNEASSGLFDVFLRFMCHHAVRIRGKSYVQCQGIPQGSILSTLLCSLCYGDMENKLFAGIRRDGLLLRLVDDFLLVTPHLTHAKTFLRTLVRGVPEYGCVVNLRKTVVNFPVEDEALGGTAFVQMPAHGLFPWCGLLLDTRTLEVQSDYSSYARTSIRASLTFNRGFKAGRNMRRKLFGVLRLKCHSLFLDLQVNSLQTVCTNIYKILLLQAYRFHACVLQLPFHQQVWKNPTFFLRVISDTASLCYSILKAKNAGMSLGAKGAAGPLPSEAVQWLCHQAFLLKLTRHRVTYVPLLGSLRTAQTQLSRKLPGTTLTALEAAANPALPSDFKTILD", "T2 sequence (O60832 whole entry partner)": "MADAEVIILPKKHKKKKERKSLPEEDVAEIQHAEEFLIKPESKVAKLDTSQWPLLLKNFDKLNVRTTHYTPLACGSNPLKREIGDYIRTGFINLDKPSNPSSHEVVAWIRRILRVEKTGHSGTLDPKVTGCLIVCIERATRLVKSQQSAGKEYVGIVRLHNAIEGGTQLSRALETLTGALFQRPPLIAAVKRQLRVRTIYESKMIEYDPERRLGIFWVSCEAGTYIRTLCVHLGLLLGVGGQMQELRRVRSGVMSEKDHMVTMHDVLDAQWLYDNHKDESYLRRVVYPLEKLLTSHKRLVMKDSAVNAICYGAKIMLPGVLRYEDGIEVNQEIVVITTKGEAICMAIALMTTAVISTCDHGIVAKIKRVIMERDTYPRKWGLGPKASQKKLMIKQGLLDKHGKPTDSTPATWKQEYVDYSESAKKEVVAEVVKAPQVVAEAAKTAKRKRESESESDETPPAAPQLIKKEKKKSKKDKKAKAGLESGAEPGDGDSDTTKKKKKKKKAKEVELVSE", "T2 sequence (Q9NPE3 whole entry partner)": "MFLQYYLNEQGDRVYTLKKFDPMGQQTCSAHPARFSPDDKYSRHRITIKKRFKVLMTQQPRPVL", "T2 sequence (Q9NX24 whole entry partner)": "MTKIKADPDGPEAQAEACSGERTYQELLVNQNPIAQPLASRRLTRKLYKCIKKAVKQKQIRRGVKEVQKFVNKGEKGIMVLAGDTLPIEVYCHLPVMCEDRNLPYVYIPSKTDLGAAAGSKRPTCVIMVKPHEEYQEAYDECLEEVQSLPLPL", "T2 sequence (Q9NY12 whole entry partner)": "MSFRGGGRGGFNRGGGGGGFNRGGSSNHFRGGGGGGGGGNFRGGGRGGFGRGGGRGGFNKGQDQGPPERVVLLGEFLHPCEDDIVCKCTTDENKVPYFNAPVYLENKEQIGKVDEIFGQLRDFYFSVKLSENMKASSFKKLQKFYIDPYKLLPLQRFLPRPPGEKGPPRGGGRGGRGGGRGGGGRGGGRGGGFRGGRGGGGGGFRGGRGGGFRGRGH", "assay": "Cell-free telomerase inhibition, conventional or modified assay not stated", "format": "biochemical"}, "[3]": {"molecular_target": "T3, human 293 cell telomerase (Homo sapiens, UniProt O14746)", "T3 construct": "with 20 μl of S100 enzyme extract; endogenous in cells; host or cells: 293 cells (transformed human embryonic kidney), S100 extract", "T3 sequence (O14746 whole entry)": "as the sequence (O14746 whole entry) above", "T3 sequence (O60832 whole entry partner)": "as the sequence (O60832 whole entry partner) above", "T3 sequence (Q9NPE3 whole entry partner)": "as the sequence (Q9NPE3 whole entry partner) above", "T3 sequence (Q9NX24 whole entry partner)": "as the sequence (Q9NX24 whole entry partner) above", "T3 sequence (Q9NY12 whole entry partner)": "as the sequence (Q9NY12 whole entry partner) above", "assay": "Conventional telomerase assay (32P-dGTP as radiolabel substrate)", "format": "biochemical", "conditions": "293 cells telomerase; competing dTTP 1-2 mM; inhibitor 0 to 2 mM"}, "[4]": {"tested_on": "G-quartet structure of human telomeric DNA sequence", "assay": "G-quartet formation by imino proton NMR", "format": "physicochemical", "conditions": "KCl-containing buffer; imino proton resonances 10-12 ppm", "experimental": "The oligodeoxyribonucleotide having the sequence d(GGTTAGGGTTAG), corresponding to the human telomeric DNA sequence, was prepared using standard automated solid phase synthesis techniques employing a ten micromole synthesis on an Applied Biosystems Model 381A automated DNA synthesizer. Solid support and reagents were purchased from Biogenex, Glen Research, or Applied Biosystems, South San Francisco, Calif. The DNA sample was deprotected in concentrated NH4OH at 55° C. overnight, purified by reverse phase HPLC on a C18 column (Dynamax-300A) and then dialyzed extensively against deionized water. NMR samples were prepared by reconstituting lyophilized DNA in 90% H2O/10% D2O containing 1 mM EDTA/50 mM potassium phosphate and either 100 mM KCl or 100 mM NaCl. NMR experiments were carried out on a Bruker AMX 500 MHz spectrophotometer using a 1-1 echo pulse sequence with maximum excitation centered as 12.0 ppm.\nAfter cleavage from the solid support, deprotection and purification, the oligodeoxyribonucleotide is dissolved in 90% H2O/10% D2O containing 100 mM KCl/1 mM EDTA/50 mM potassium phosphate. The imino NMR spectrum of this oligodeoxyribonucleotide is acquired at various temperatures from about 0° C.-80° C. and the presence of the diagnostic G-quartet imino is indicated by the presence of resonances at 10-12 ppm."}},
  "note": "pIC50: −log10 of the molar value. [7dzG] = 7-deaza-2'-deoxyguanosine (G*)",
  "data": [
    {"molecule": "Cc1cn([C@H]2C[C@H](F)[C@@H](COP(=O)(O)OP(=O)(O)OP(=O)(O)O)O2)c(=O)[nH]c1=O", "note": "[NA002, 3′-Fluoro-3′-Deoxythymidine-5′-Triphosphate]", "values": [
      {"measurement": "inhibition of the non-processive CHO telomerase", "setting": "[1]; concentration not given", "result": "completely"},
      {"measurement": "effect against the processive human telomerase", "setting": "[2]; concentration not given", "result": "little effect"}
    ]},
    {"molecule": "Cc1cn([C@H]2C[C@H](N=[N+]=[N-])[C@@H](CO[P@](=O)(O)O[P@](=O)(O)OP(=O)(O)O)O2)c(=O)[nH]c1=O", "note": "[NA010, 3′-Azido-3′-Deoxythymidine-5′-Triphosphate]", "values": [
      {"measurement": "pIC50", "setting": "[1]; UA-21 telomerase, estimated from densitometry, read-out: concentration required to inhibit the telomerase activity by 50% of the control", "result": "~3.12"},
      {"measurement": "pIC50", "setting": "[2]; 293 telomerase, estimated from densitometry, read-out: concentration required to inhibit the telomerase activity by 50% of the control", "result": "~3.30"},
      {"measurement": "pIC50", "setting": "[3]", "result": "~3.70"}
    ]},
    {"molecule": "d(GGTTAGG*GTTAG): oligodeoxyribonucleotide where G* represents the 7-deaza-2′-deoxyguanosine residue (DNA GGTTAGGGTTAG; DNA, [7dzG] at 7, backbone not given here)", "values": [
      {"measurement": "temperature up to which G-quartet structure forms", "setting": "[4]", "result": "≤ 20", "unit": "°C"}
    ]},
    {"molecule": "d(GGTTAGGGTTAG): oligodeoxyribonucleotide corresponding to the human telomeric DNA sequence (DNA, backbone not given here) [reference compound]", "values": [
      {"measurement": "temperature up to which G-quartet structure forms", "setting": "[4]", "result": "≥ 70", "unit": "°C"}
    ]}
  ]
}
